Tests used:
S. aureus DSM 20231 [1] = experiment: fitness (endpoint OD595 vs no drug) (fraction); higher = more growth
Procedure, shortened: (§1)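 With the first reading as background, OD595 was measured every 30 min for 14 h in 384-well plates kept at 37 °C and inoculated at OD595 0.01. TSB, LB Lennox or CY was the medium. Fitness is the optical density at the transition into stationary phase divided by the robust mean of no-drug control wells, with a cap of 1.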

S. aureus Newman [2] = experiment: as above
Procedure, shortened: as §1

S. pneumoniae D39V [3] = experiment: as above
Procedure, shortened: as §1

B. subtilis 168 = experiment: Bliss interaction score (quartile over a dose matrix) (fitness difference); higher = more antagonism (negative = synergy)
Procedure, shortened: (§2)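 Each plate was normalised to the robust mean of its own no-drug wells, using OD595 at entry into stationary phase, with values capped at 1. This normalised growth is the fitness value. The Bliss score is the difference between observed and product-expected fitness, with single-drug fitness inferred from the combination data and quartiles taken over technical, biological and donor/recipient replicates.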

S. aureus DSM 20231 [4] = experiment: as above
Procedure, shortened: as §2

S. aureus Newman [5] = experiment: as above
Procedure, shortened: as §2

S. pneumoniae D39V [6] = experiment: as above
Procedure, shortened: as §2
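Throughout, for Bliss interaction score (quartile over a dose matrix): first quartile when negative (synergy) and third quartile when positive (antagonism).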

COc1ccc(C[C@H](N)C(=O)N[C@H]2[C@@H](O)[C@H](n3cnc4c(N(C)C)ncnc43)O[C@@H]2CO)cc1 [Puromycin] + CN[C@H](CC(C)C)C(=O)N[C@H]1C(=O)N[C@@H](CC(N)=O)C(=O)N[C@H]2C(=O)N[C@H]3C(=O)N[C@H](C(=O)N[C@H](C(=O)O)c4cc(O)cc(O)c4-c4cc3ccc4O)[C@H](O)c3ccc(c(Cl)c3)Oc3cc2cc(c3O[C@@H]2O[C@H](CO)[C@@H](O)[C@H](O)[C@H]2O[C@H]2C[C@](C)(N)[C@H](O)[C@H](C)O2)Oc2ccc(cc2Cl)[C@H]1O [Vancomycin]
fitness
Conditions | S. aureus DSM 20231 [1] | S. aureus Newman [2] | S. pneumoniae D39V [3]
first compound 0.39 µg/mL, partner 0.1875 µg/mL | ≥ 1 | ≥ 1 | –
first compound 0.39 µg/mL, partner 0.375 µg/mL | 0.986 | 0.996 | –
first compound 0.39 µg/mL, partner 0.75 µg/mL | ≥ 1 | ≥ 1 | –
first compound 0.78 µg/mL, partner 0.1875 µg/mL | ≥ 1 | ≥ 1 | –
first compound 0.78 µg/mL, partner 0.375 µg/mL | ≥ 1 | 0.994 | –
first compound 0.78 µg/mL, partner 0.75 µg/mL | ≥ 1 | 0.979 | –
first compound 1 µg/mL, partner 0.03125 µg/mL | – | – | 0.999
first compound 1 µg/mL, partner 0.0625 µg/mL | – | – | 0.989
first compound 1 µg/mL, partner 0.125 µg/mL | – | – | 0.8
first compound 1.56 µg/mL, partner 0.1875 µg/mL | ≥ 1 | ≥ 1 | –
first compound 1.56 µg/mL, partner 0.375 µg/mL | ≥ 1 | 0.978 | –
first compound 1.56 µg/mL, partner 0.75 µg/mL | ≥ 1 | 0.999 | –
first compound 2 µg/mL, partner 0.03125 µg/mL | – | – | 0.985
first compound 2 µg/mL, partner 0.0625 µg/mL | – | – | 0.969
first compound 2 µg/mL, partner 0.125 µg/mL | – | – | 0.849
first compound 4 µg/mL, partner 0.03125 µg/mL | – | – | 0.808
first compound 4 µg/mL, partner 0.0625 µg/mL | – | – | 0.822

one replicate
Conditions | fitness
S. aureus DSM 20231 [1], first compound 3.12 µg/mL, partner 0.1875 µg/mL | ≥ 1
S. aureus DSM 20231 [1], first compound 3.12 µg/mL, partner 0.375 µg/mL | 0.915
S. aureus DSM 20231 [1], first compound 3.12 µg/mL, partner 0.75 µg/mL | 0.922
S. aureus DSM 20231 [1], first compound 6.24 µg/mL, partner 0.1875 µg/mL | 0.642
S. aureus DSM 20231 [1], first compound 6.24 µg/mL, partner 0.375 µg/mL | 0.737
S. aureus DSM 20231 [1], first compound 6.24 µg/mL, partner 0.75 µg/mL | 0.716
S. pneumoniae D39V [3], first compound 1 µg/mL, partner 0.25 µg/mL | 0.088
S. pneumoniae D39V [3], first compound 1 µg/mL, partner 0.5 µg/mL | 0.0805
S. pneumoniae D39V [3], first compound 2 µg/mL, partner 0.25 µg/mL | 0.223
S. pneumoniae D39V [3], first compound 2 µg/mL, partner 0.5 µg/mL | 0.125
S. pneumoniae D39V [3], first compound 4 µg/mL, partner 0.25 µg/mL | 0.141
S. pneumoniae D39V [3], first compound 4 µg/mL, partner 0.5 µg/mL | 0.121

Conditions | Bliss interaction score
B. subtilis 168 | -0.0411
S. aureus DSM 20231 [4] | 0.0659
S. aureus Newman [5] | 0.0575
S. pneumoniae D39V [6] | -0.0711

COc1ccc(C[C@H](N)C(=O)N[C@H]2[C@@H](O)[C@H](n3cnc4c(N(C)C)ncnc43)O[C@@H]2CO)cc1 [Puromycin] + CCCCCCCCCC(=O)N[C@@H]1[C@H]([C@@H]([C@H](O[C@H]1OC2=C3C=C4C=C2OC5=C(C=C(C=C5)[C@H]([C@H]6C(=O)N[C@@H](C7=C(C(=CC(=C7)O)OC8[C@H]([C@H]([C@@H]([C@H](O8)CO)O)O)O)C9=C(C=CC(=C9)[C@H](C(=O)N6)NC(=O)[C@@H]4NC(=O)[C@@H]1C2=CC(=CC(=C2)OC2=C(C=CC(=C2)[C@H](C(=O)N[C@H](CC2=CC(=C(O3)C=C2)Cl)C(=O)N1)N)O)O)O)C(=O)O)O[C@H]1[C@@H]([C@H]([C@@H]([C@H](O1)CO)O)O)NC(=O)C)Cl)CO)O)O [Teicoplanin]
fitness, main component drawn
Conditions | first compound 0.39 µg/mL | first compound 0.78 µg/mL | first compound 1.56 µg/mL
S. aureus DSM 20231 [1], partner 0.1562 µg/mL | 0.895 | 0.997 | 0.982
S. aureus DSM 20231 [1], partner 0.3125 µg/mL | ≥ 1 | ≥ 1 | 1
S. aureus DSM 20231 [1], partner 0.625 µg/mL | ≥ 1 | ≥ 1 | ≥ 1
S. aureus Newman [2], partner 0.1562 µg/mL | ≥ 1 | ≥ 1 | ≥ 1
S. aureus Newman [2], partner 0.3125 µg/mL | ≥ 1 | ≥ 1 | ≥ 1
S. aureus Newman [2], partner 0.625 µg/mL | ≥ 1 | 0.888 | 0.906

fitness, one replicate, main component drawn
Conditions | partner 0.1562 µg/mL | partner 0.3125 µg/mL | partner 0.62 µg/mL | partner 0.625 µg/mL | partner 1.24 µg/mL | partner 2.48 µg/mL
S. aureus DSM 20231 [1], first compound 3.12 µg/mL | 0.94 | ≥ 1 | – | ≥ 1 | – | –
S. aureus DSM 20231 [1], first compound 6.24 µg/mL | 0.664 | 0.579 | – | 0.504 | – | –
S. aureus Newman [2], first compound 0.39 µg/mL | – | – | 0.761 | – | 0.754 | 0.457
S. aureus Newman [2], first compound 0.78 µg/mL | – | – | 0.815 | – | 0.755 | 0.454
S. aureus Newman [2], first compound 1.56 µg/mL | – | – | 0.79 | – | 0.76 | 0.403

main component drawn
Conditions | Bliss interaction score
B. subtilis 168 | 0.0835
S. aureus DSM 20231 [4] | -0.0344
S. aureus Newman [5] | 0.0617
S. pneumoniae D39V [6] | 0.083

COc1ccc(C[C@H](N)C(=O)N[C@H]2[C@@H](O)[C@H](n3cnc4c(N(C)C)ncnc43)O[C@@H]2CO)cc1 [Puromycin] + Cn1nnc(-c2ccc(-c3ccc(N4C[C@H](CO)OC4=O)cc3F)cn2)n1 [Tedizolid]
fitness
Conditions | partner 0.03125 µg/mL | partner 0.0625 µg/mL | partner 0.125 µg/mL | partner 0.25 µg/mL
S. aureus DSM 20231 [1], first compound 0.39 µg/mL | – | 0.879 | 0.7 | 0.24
S. aureus DSM 20231 [1], first compound 0.78 µg/mL | – | 0.831 | 0.794 | 0.267
S. aureus DSM 20231 [1], first compound 1.56 µg/mL | – | 0.827 | – | 0.157
S. aureus Newman [2], first compound 0.39 µg/mL | – | 0.987 | 0.884 | 0.479
S. aureus Newman [2], first compound 0.78 µg/mL | – | 0.935 | 0.834 | 0.404
S. aureus Newman [2], first compound 1.56 µg/mL | – | 0.942 | 0.829 | 0.304
S. pneumoniae D39V [3], first compound 1 µg/mL | 0.967 | 0.966 | 0.787 | –
S. pneumoniae D39V [3], first compound 2 µg/mL | 0.958 | 0.935 | 0.78 | –
S. pneumoniae D39V [3], first compound 4 µg/mL | 0.819 | 0.828 | 0.756 | –

fitness, one replicate
Conditions | partner 0.0625 µg/mL | partner 0.125 µg/mL | partner 0.25 µg/mL | partner 0.5 µg/mL
S. aureus DSM 20231 [1], first compound 3.12 µg/mL | 0.503 | 0.148 | 0.0225 | –
S. aureus DSM 20231 [1], first compound 6.24 µg/mL | 0.224 | 0.0566 | 0.0172 | –
S. pneumoniae D39V [3], first compound 1 µg/mL | – | – | 0.652 | 0.184
S. pneumoniae D39V [3], first compound 2 µg/mL | – | – | 0.686 | 0.284
S. pneumoniae D39V [3], first compound 4 µg/mL | – | – | 0.499 | 0.234

Conditions | Bliss interaction score
B. subtilis 168 | -0.0598
S. aureus DSM 20231 [4] | -0.0959
S. aureus Newman [5] | 0.0352
S. pneumoniae D39V [6] | -0.1
